# Results published in EP4595964A1, “TREATMENT OF GM1 GANGLIOSIDOSIS” (Azafaros B.V., priority 2024, dated 2025).
# How the values were obtained:
# [1] = tested on: GLB1-null Ex 2-3 cerebral organoids; assay type: cell-based, human
# [2] = tested on: GLB1-null Ex 2-3 cerebral organoids; experiment: Neuronal survival and health in the human brain organoid model of GM1 gangliosidosis; assay type: cell-based; details: 5 nM, 500 nM; concomitant with the GM1 reduction
# [3] = tested on: control or GLB1-null cerebral organoids; experiment: Cellularity test in cerebral organoids; assay type: cell-based, human; details: any timepoint, 5 nM, 500 nM
structure (smiles),measurement,setting,value
OC[C@H]1[C@@H](O)[C@H](O)[C@@H](O)CN1CCCCCOCc1ccc(-c2ccccc2)c(F)c1 [nizubaglustat],GM1 accumulation,"[1]; 5 nM, 500 nM, weeks 18, 20 and 24, dose-dependent fashion, GLB1-null Ex 2-3 cerebral organoids",significantly reduced
same,level of GLB1 in the EX 2-3 cell line,"[1]; Week 24, representative images (Figure 4 top panel), green stain",significantly reduces
same,reduced the level of GM1 ganglioside,[1]; after 24 weeks of regular (2-3 times per week) administration,at least 2 fold
same,neuronal survival and health,[2],increased
same,cellularity,[3],did not reduce
